In the supplement of paper PMC4862054:

How the values were obtained:
Conditions in all cases: incubation time: 72 h
[1] = tested on: MDA-MB-453; assay: normalised response (% of control), CellTox Green; higher = less cell death (100 = DMSO, 0 = benzethonium chloride kill control)
In short: (§1)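 Breast cancer cell lines (20 µl suspension) were seeded into 384-well plates holding compound at 5 concentrations in 10-fold steps over a compound-specific 10,000-fold range, then incubated 72 h. CellTox Green fluorescence (485/520 nm) was read first, then CellTiter-Glo luminescence after 10 min at room temperature. Each plate was normalised to 0.1 % DMSO (100) and a positive kill control (0). Each value is the normalised signal at a single concentration of the series.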

[2] = tested on: BT-474; assay: as above
In short: as §1

[3] = tested on: HCC1599; assay: as above
In short: as §1

[4] = tested on: MDA-MB-436; assay: as above
In short: as §1

[5] = tested on: HCC1143; assay: as above
In short: as §1

[6] = tested on: CAL-85-1; assay: as above
In short: as §1

[7] = tested on: MDA-MB-231; assay: as above
In short: as §1

[8] = tested on: Hs578T; assay: as above
In short: as §1

[9] = tested on: MCF-10A; assay: as above
In short: as §1

[10] = tested on: CAL-120; assay: as above
In short: as §1

[11] = tested on: CAL-148; assay: as above
In short: as §1

[12] = tested on: MDA-MB-468; assay: as above
In short: as §1

[13] = tested on: DU-4475; assay: as above
In short: as §1

[14] = tested on: BT-549; assay: as above
In short: as §1

[15] = tested on: HDQ-P1; assay: as above
In short: as §1

[16] = tested on: MFM-223; assay: as above
In short: as §1

[17] = tested on: CAL-51; assay: as above
In short: as §1

[18] = tested on: HCC1937; assay: as above
In short: as §1

[19] = tested on: MDA-MB-453; assay: normalised response (% of control), CellTiter-Glo; higher = more viable cells (100 = DMSO, 0 = benzethonium chloride kill control)
Experimental: (§2)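 DSRT, 72 h incubation, CellTox Green / CellTiter-Glo readout. Signal is normalised to DMSO and benzethonium chloride controls. Value is the normalised response at dose 3.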

[20] = tested on: BT-474; assay: as above
Experimental: as §2

[21] = tested on: HCC1599; assay: as above
Experimental: as §2

[22] = tested on: MDA-MB-436; assay: as above
Experimental: as §2

[23] = tested on: HCC1143; assay: as above
Experimental: as §2

[24] = tested on: CAL-85-1; assay: as above
Experimental: as §2

[25] = tested on: MDA-MB-231; assay: as above
Experimental: as §2

[26] = tested on: SK-BR-3; assay: as above
Experimental: as §2

[27] = tested on: Hs578T; assay: as above
Experimental: as §2

[28] = tested on: MCF-10A; assay: as above
Experimental: as §2

[29] = tested on: CAL-120; assay: as above
Experimental: as §2

[30] = tested on: CAL-148; assay: as above
Experimental: as §2

[31] = tested on: MDA-MB-468; assay: as above
Experimental: as §2

[32] = tested on: DU-4475; assay: as above
Experimental: as §2

[33] = tested on: BT-549; assay: as above
Experimental: as §2

[34] = tested on: HDQ-P1; assay: as above
Experimental: as §2

[35] = tested on: MFM-223; assay: as above
Experimental: as §2

[36] = tested on: CAL-51; assay: as above
Experimental: as §2

[37] = tested on: HCC1937; assay: as above
Experimental: as §2

SMILES	normalised response [1]	normalised response [2]	normalised response [3]	normalised response [4]	normalised response [5]	normalised response [6]	normalised response [7]	normalised response [8]	normalised response [9]	normalised response [10]	normalised response [11]	normalised response [12]	normalised response [13]	normalised response [14]	normalised response [15]	normalised response [16]	normalised response [17]	normalised response [18]	normalised response [19]	normalised response [20]	normalised response [21]	normalised response [22]	normalised response [23]	normalised response [24]	normalised response [25]	normalised response [26]	normalised response [27]	normalised response [28]	normalised response [29]	normalised response [30]	normalised response [31]	normalised response [32]	normalised response [33]	normalised response [34]	normalised response [35]	normalised response [36]	normalised response [37]
CCn1c(-c2nonc2N)nc2cnc(Oc3cccc(NC(=O)c4ccc(OCCN5CCOCC5)cc4)c3)cc21 (100 nM)	101%	103%	96.8%	82%	101%	98.3%	79.4%	66.9%	97.3%	102%	98.4%	119%	100%	90.2%	105%	95.4%	63.3%	108%	97.1%	81.8%	95.9%	103%	103%	95.5%	86.5%	97.9%	80.5%	75.6%	81.9%	99.6%	91.4%	95.4%	88.6%	99.6%	98%	80%	102%
CNC(=O)c1ccc(N2C(=S)N(c3ccc(C#N)c(C(F)(F)F)c3)C(=O)C2(C)C)cc1F [Enzalutamide] (100 nM)	106%	103%	103%	96.9%	111%	117%	113%	95.1%	86.1%	106%	100%	126%	107%	103%	71.9%	101%	74.8%	94.6%	105%	99.7%	113%	101%	101%	108%	95.9%	101%	102%	108%	106%	106%	102%	99.1%	97.1%	97.4%	104%	70.4%	91.1%
C=C1C[C@@H]2[C@H](CC[C@]3(C)C(=O)CC[C@@H]23)[C@@]2(C)C=CC(=O)C=C12 [Exemestane] (100 nM)	108%	104%	112%	109%	99.6%	101%	117%	86.8%	109%	102%	89%	50%	109%	92.8%	94.5%	107%	116%	56.9%	106%	98.6%	104%	103%	104%	103%	107%	106%	104%	110%	106%	109%	101%	106%	101%	102%	106%	111%	94.8%
Cc1cc(Nc2cc(CN3CCOCC3)c3nc(C)c(Cc4ccc(Cl)cc4F)n3n2)n[nH]1 [Gandotinib] (100 nM)	102%	100%	112%	100%	108%	95%	103%	72%	84.8%	89%	103%	119%	99.2%	90%	109%	105%	98.9%	102%	104%	99.9%	85.9%	105%	109%	102%	98.8%	95.6%	96.3%	105%	96.1%	105%	97.9%	101%	94.4%	110%	93.4%	94.3%	104%
NC(=O)c1ccc(I)c([N+](=O)[O-])c1 [Iniparib] (100 nM)	99.1%	95.7%	83.9%	67.8%	70.8%	103%	83%	94.2%	100%	99.1%	53.4%	128%	94.2%	106%	99.5%	97.5%	98.5%	92.4%	78.5%	92%	94%	93%	96.9%	92%	90.9%	80.9%	92.8%	76.1%	89.6%	84.8%	85.2%	98.8%	99%	95%	82.7%	117%	93.1%
CCc1c2c(nc3ccc(OC(=O)N4CCC(N5CCCCC5)CC4)cc13)-c1cc3c(c(=O)n1C2)COC(=O)[C@]3(O)CC [Irinotecan] (100 nM)	102%	92.4%	99.7%	93.4%	86%	94.9%	89.2%	77.4%	109%	98.7%	104%	99.2%	101%	93.4%	117%	73.8%	106%	98%	102%	99.2%	112%	93.8%	96%	103%	96.2%	100%	98%	95.4%	92.5%	96.6%	111%	98.8%	95.3%	96.5%	106%	109%	94.8%
O=C(Nc1cccnc1)N1CCC(Cc2cccc(Oc3ccc(C(F)(F)F)cn3)c2)CC1 [PF-3845] (100 nM)	104%	104%	113%	107%	121%	97.5%	121%	87.9%	107%	104%	103%	107%	107%	99.9%	105%	102%	110%	110%	113%	103%	85%	103%	107%	104%	115%	112%	103%	112%	102%	113%	107%	102%	104%	96.7%	110%	106%	103%
Cc1[nH]c2ccccc2c1CCNCc1ccc(/C=C/C(=O)NO)cc1 [Panobinostat] (10 nM)	81.9%	75.8%	96.4%	82.3%	76.1%	89.9%	86.3%	106%	110%	99.7%	83.1%	70.6%	95.4%	106%	102%	94.9%	99.8%	99.2%	50.6%	94.3%	94.8%	83.5%	88.5%	77.1%	88.4%	65.8%	88.1%	99.6%	85.3%	83.1%	84.6%	84%	99.7%	93.3%	90.8%	73.7%	81.5%
COCC1(CO)C(=O)C2CCN1CC2 (stereo not drawn) [Prima-1 Met] (100 nM)	102%	101%	114%	86.5%	83.2%	95.6%	104%	104%	82%	102%	106%	145%	101%	102%	109%	108%	108%	122%	104%	96.8%	119%	101%	103%	99.7%	97.5%	98.7%	101%	107%	99.3%	112%	95.8%	96.1%	106%	103%	107%	99.6%	102%
